Experimental data from patent US20070190172A1, “Enhanced activity biocidal hydrogen peroxide composition” (ASEPTIX TECHNOLOGIES B.V., priority 2006, published 2007).

How the values were obtained:
Staphylococcus aureus [1] = conditions: background statement; cited from earlier work
Adenovirus = assay: EN 14476 virucidal quantitative suspension test; format: cell-based
Description: (§1) In a similar way, fungicidal and virucidal activity was tested using tests dedicated for use with fungi of viruses. For fungi or yeasts, the tests according to European norms EN 1275, EN 1650 or EN 13624 were used. For viruses, the test according to European norm EN 14476 was used.
(§2) A composition comprising 2% H2O2 and 1% Monafax 1214 was prepared and tested against Vacciniavirus, Feline Calici Virus and Adenovirus according to the […] norm:
(§3) EN 14476—Chemical disinfectants and antiseptics—Virucidal quantitative suspension test for chemical disinfectants and antiseptics used in human medicine—Test methods and requirements (phase 2/step 1).

Candida albicans = assay: EN 1276 bactericidal suspension test; format: cell-based; conditions: 1.2% H2O2 + 0.6% surfactant
From the text: (§4) Biocidal activity of a composition for use according to the invention is preferably determined by a controlled bactericidal suspension test conform European Norm for chemical disinfectants and antiseptics EN 1276 (EN 1276: Quantitative suspension test for the evaluation of bactericidal activity of chemical disinfectants and antiseptics used in food, industrial, domestic, and institutional areas: test method and requirements). An effective biocidal composition is a composition that provides at least a log 3 reduction after a 1 minute contact time with a Staphylococcus aureus test suspension of 10^8 cfu per ml, preferably at least a log 4 reduction, more preferably at least a log 5 reduction, most preferably at least a log 6 reduction.
(§5) Bactericidal activity of the exemplified compositions was tested using a controlled bactericidal suspension test conform European Norm for chemical disinfectants and antiseptics EN 1276 (EN 1276: Quantitative suspension test for the evaluation of bactericidal activity of chemical disinfectants and antiseptics used in food, industrial, domestic, and institutional areas: test method and requirements). One ml of a test suspension containing about 10^8 cfu of the test microorganism per ml is added to 8 ml of the composition to be tested, and 1 ml milli-Q water is added. In some experiments, a protein load was added to this suspension according to the EN 1276 procedures to simulate unclean practical conditions. To provide for a clean condition 0.3% Bovine Albumin was added and for a dirty condition 3% Bovine Albumin.
(§6) After 1, 2 and 5 minutes contact time, the amount of viable bacteria was determined.
(§7) To simulate unclean practical conditions, a protein load was added according to the EN 1276 procedures to bacterial test suspensions. To provide for a clean condition 0.3% Bovine Albumin was added and for a dirty condition 3% Bovine Albumin. The performance of Monafax 1214 was compared with that of the N,N-Dimethyldecylamine-N-oxide (Barlox 10s of Lonza Ltd.). A H2O2 concentration of 1.2% was used and a 0.6% of the respective surfactants. The solution containing Monafax has a pH of around 2.3 and the solution containing Barlox 10s has a pH of around 5.

Lysteria monocytogenes = assay: EN 1276 bactericidal suspension test; format: cell-based; conditions: 1.2% H2O2 + 0.6% surfactant
From the text: as §4, §5, §6, §7

Bacillus cereus = assay: EN 1276 bactericidal suspension test; format: cell-based; conditions: 1.2% H2O2 + 0.6% surfactant
From the text: as §4, §5, §6, §7

Enterococcus hirae = assay: EN 1276 bactericidal suspension test; format: cell-based; conditions: 1.2% H2O2 + 0.6% surfactant
From the text: as §4, §5, §6, §7

Staphylococcus aureus [2] = assay: EN 1276 bactericidal suspension test; format: cell-based; conditions: 1.2% H2O2 + 0.6% surfactant
From the text: as §4, §5, §6

Feline Calici Virus = assay: EN 14476 virucidal quantitative suspension test; format: cell-based
Description: as §1, §2, §3

[3] = clean condition 0.3% Bovine Albumin, 2 min
[4] = clean condition 0.3% Bovine Albumin, 5 min
[5] = dirty condition 3% Bovine Albumin, 2 min
[6] = dirty condition 3% Bovine Albumin, 5 min

## OO [3% w/w hydrogen peroxide, hydrogen peroxide]
Staphylococcus aureus [1]
  time to achieve a greater than 6 log reduction in Staphylococcus aureus: 20 minutes

## OO [hydrogen peroxide]
Staphylococcus aureus [1]
  time to achieve a greater than log 6 reduction in Staphylococcus aureus: 20 seconds

## OO [3% H2O2, hydrogen peroxide]
Adenovirus
  log reduction, 5 minutes: log 0.5
  log reduction, 10 minutes: log 0.6

## CCCCCCCCCC[N+](C)(C)[O-] [Barlox 10s (Lonza), N,N-Dimethyldecylamine-N-oxide]
Candida albicans; [3]
  number of colonies, clean, 2 min: 300
Candida albicans; [4]
  number of colonies, clean, 5 min: 250
Candida albicans; [5]
  number of colonies, dirty, 2 min: >300
Candida albicans; [6]
  number of colonies, dirty, 5 min: >300
Lysteria monocytogenes; [3]
  number of colonies, clean, 2 min: >300
Lysteria monocytogenes; [4]
  number of colonies, clean, 5 min: >300
Lysteria monocytogenes; [5]
  number of colonies, dirty, 2 min: >300
Lysteria monocytogenes; [6]
  number of colonies, dirty, 5 min: >300
Bacillus cereus; [3]
  number of colonies, clean, 2 min: >300
Bacillus cereus; [4]
  number of colonies, clean, 5 min: >300
Bacillus cereus; [5]
  number of colonies, dirty, 2 min: >300
Bacillus cereus; [6]
  number of colonies, dirty, 5 min: >300
Enterococcus hirae; [3]
  number of colonies, clean, 2 min: 8
Enterococcus hirae; [4]
  number of colonies, clean, 5 min: 0
Enterococcus hirae; [5]
  number of colonies, dirty, 2 min: 6
Enterococcus hirae; [6]
  number of colonies, dirty, 5 min: 1
Staphylococcus aureus [2]; [3]
  number of colonies, clean, 2 min: >300
Staphylococcus aureus [2]; [4]
  number of colonies, clean, 5 min: >300
Staphylococcus aureus [2]; [5]
  number of colonies, dirty, 2 min: >300
Staphylococcus aureus [2]; [6]
  number of colonies, dirty, 5 min: >300

## OO [2% H2O2, hydrogen peroxide]
Feline Calici Virus
  log reduction, 3 minutes: log 0.2
  log reduction, 5 minutes: log 0.9
Adenovirus
  log reduction, 5 minutes: log 0.6
  log reduction, 10 minutes: log 0.6
